Data from patent publication US11458126B2, “DHODH inhibitor for use in treating hematologic cancers” (PTC THERAPEUTICS, INC., priority 2017, dated 2022).

Assay: Plasma concentration after oral administration (HPLC-MS/MS)
Assay type: in vivo
Conditions: mice, 10 mg/kg, HPLC-MS/MS (FIG. 7)
Text: The side-effects associated with these DHODH inhibitors are believed to be due to off-target activities such as kinase inhibition [21; 22]. […] The antiviral compound GSK983 was recently reported as a DHODH inhibitor [23]. […] FACS analysis was done on FACSCalibur (FIG. 8).

O=C(N[C@@H]1CCCc2c1[nH]c1ccc(Cl)cc21)c1ccccn1 [GSK983]
plasma concentration compared with Cpd 1: lower plasma concentration
